This is an account of results in ChEMBL document CHEMBL1201862, “PubChem BioAssay data set” (2004).

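Grown in 96-well plates, cells were treated for 48 hours with each compound at five concentrations. Insufficient inhibition: endpoint recorded as highest concentration tested. GI50 is the concentration that inhibits growth by half.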 Active and inactive are the calls of the source. Cut-off read from the data, not from the text of the source: active = GI50 up to about 1.1 µM and inactive = higher. Starred links: 1 amine or outer side, 2 acyl side, 3 side chain; linkers in the order of their positions; H or OH if unused. Positions of bridges follow the written chain, without caps; N, C: chain ends. Non-standard residues stand in square brackets, D forms with d. Residues, ends and D or L forms follow the SMILES beside them. *: point of attachment. X40 = CC[C@H](C)[C@@H](N[*:1])[C@@H](O)CC(=O)[*:2]; NMeY = CN[C@@H](Cc1ccc(O)cc1)C(=O)O; dNMeL = CN[C@H](CC(C)C)C(=O)O; Hiv = CC(C)[C@H](O)C(=O)O; Pyruvoyl = CC(=O)C(=O)* Bounds are passed on as bounds.

Common to all, as to assay: inhibition of tumour cell growth, NCI panel, 48 h
For assay [1], the system named is RPMI-8226.
The test system of assay [2] is OVCAR-3.
Assay [3] has as its system 786-0.
The subject of assay [4] is SK-MEL-5.
Assay [5] deals with SW-620.
The subject of assay [6] is IGROV-1.
Assay [7] deals with M14.
For assay [8], the system named is HT-29.
Assay [9] deals with HOP-92.
The subject of assay [10] is LOX IMVI.
The test system of assay [11] is K562.
Assay [12] relates to Malme-3M.
For assay [13], the system named is NCI-H522.
For assay [14], the system named is HCC 2998.
For assay [15], the system named is OVCAR-5.
Assay [16] concerns RXF 393.
Assay [17] has as its system OVCAR-4.
The test system of assay [18] is UACC-62.
Assay [19] has as its system NCI-H226.

As for `CC[C@H](C)[C@H]1NC(=O)[C@@H](NC(=O)[C@@H](CC(C)C)N(C)C(=O)[C@@H]2CCCN2C(=O)C(C)=O)[C@@H](C)OC(=O)[C@H](Cc2ccc(OC)cc2)N(C)C(=O)[C@@H]2CCCN2C(=O)[C@H](CC(C)C)NC(=O)[C@H](C(C)C)OC(=O)C[C@@H]1O` (Pyruvoyl-P[dNMeL]T[X40][Hiv]LP[NMeY](Me); ester 3-C), the GI50 in assay [1] was 0.00545 µM (active); in [2] it was 0.00577 µM (active); in [3] it was 0.00361 µM (active); in assay [4] it was 0.00393 µM (active); in assay [5], 0.00505 µM (active); in [6], 0.00471 µM (active). In addition, the GI50 is 0.00269 µM (active) in assay [7]; 0.00434 µM (active) in assay [8]; 0.0302 µM (active) in assay [9]; 0.00428 µM (active) in assay [10]; 0.00353 µM (active) in assay [11]; 0.00538 µM (active) in assay [12]. Moreover, the GI50 is 0.00547 µM (active) in assay [13]; 0.00261 µM (active) in [14]; 0.00632 µM (active) in [15]; 0.00383 µM (active) in assay [16]; 0.00562 µM (active) in assay [17]; 0.00374 µM (active) in assay [18]. Further, the GI50 in assay [19] was 0.0159 µM (active).
Consider `CN(C)/C=N/S(=O)(=O)c1nn2c(C=O)c(-c3ccccc3)nc2s1`, for which the GI50 is 3.43 µM (inactive) in [1]; 8.32 µM (inactive) in assay [2]; 5.62 µM (inactive) in assay [3]; 11.5 µM (inactive) in assay [4]; 3.76 µM (inactive) in assay [5]; 2.51 µM (inactive) in assay [7]. The GI50 in assay [8] was 1.94 µM (inactive); in assay [9] it was 17.5 µM (inactive); in assay [10], 14.7 µM (inactive); in [11] it was 3.9 µM (inactive); in [12] it was 12.9 µM (inactive); in assay [13] it was 3.37 µM (inactive). In addition, the GI50 in [14] is 36.1 µM (inactive); in assay [15], 47.1 µM (inactive); in assay [16], 13 µM (inactive); in assay [17], 22.7 µM (inactive); in assay [18] it was 18.2 µM (inactive); in assay [19] it was 21.4 µM (inactive).
For `O=[N+]([O-])c1ccc2c(c1)nc(Cc1ccc(Cl)cc1)n2C[C@@H]1CCCN2CCCCC12` (stereo partly specified), the GI50 was 26.3 µM (inactive) in assay [1]; 15.5 µM (inactive) in assay [2]; 11.8 µM (inactive) in assay [3]; 14.8 µM (inactive) in assay [4]; 20.8 µM (inactive) in assay [5]; 9.84 µM (inactive) in [6]. In addition, the GI50 in [7] is 9.79 µM (inactive); in assay [8] it was 8.59 µM (inactive); in [9] it was 6.47 µM (inactive); in assay [10], 13.7 µM (inactive); in assay [11], 15 µM (inactive); in assay [12], 9.16 µM (inactive). In addition, the GI50 in assay [13] was 12.3 µM (inactive); in assay [14], 7.64 µM (inactive); in [15], 15.5 µM (inactive); in [16], 11.6 µM (inactive); in assay [17], 9.86 µM (inactive); in [18], 15.2 µM (inactive). Further, in [19], the GI50 was 16.6 µM (inactive).
In the case of `O=C1C=C/C(=N/c2cccc3c(/N=C4/C=CC(=O)O4)cccc23)O1`, the GI50 in [1] is 23.1 µM (inactive); in assay [2], 51.6 µM (inactive); in [3], 19.4 µM (inactive); in [4] it was > 100 µM (inactive); in assay [5], 16.4 µM (inactive); in [6] it was 58.5 µM (inactive). Besides, the GI50 in assay [7] was 29.2 µM (inactive); in [8] it was 41.8 µM (inactive); in assay [9] it was 42.7 µM (inactive); in assay [10] it was 27.8 µM (inactive); in assay [11], 21.2 µM (inactive); in assay [12] it was 22.2 µM (inactive). Moreover, the GI50 in assay [13] is 18.7 µM (inactive); in assay [14], > 100 µM (inactive); in assay [15], 54.8 µM (inactive); in assay [16], 20.7 µM (inactive); in [17] it was 39.4 µM (inactive); in [18], 34.4 µM (inactive). In addition, the GI50 in assay [19] was > 100 µM (inactive).
Regarding `O=C1O/C(=C\c2ccc(O)cc2)C(c2ccc(O)c(Cl)c2)=C1Cl`, the GI50 in assay [1] is > 100 µM (inactive); in assay [2], 38.1 µM (inactive); in assay [3], 50.2 µM (inactive); in assay [4], 18.5 µM (inactive); in assay [5] it was 41.7 µM (inactive); in assay [6] it was 40.1 µM (inactive). The GI50 in assay [7] was 35.7 µM (inactive); in [8], 53.2 µM (inactive); in assay [9], 26.5 µM (inactive); in assay [10] it was 50.6 µM (inactive); in assay [11] it was 57.1 µM (inactive); in [12], 24.5 µM (inactive). For the same compound, the GI50 in assay [13] was 23 µM (inactive); in [14] it was 38.2 µM (inactive); in assay [15], > 100 µM (inactive); in assay [16], 30.9 µM (inactive); in assay [17] it was 69 µM (inactive); in assay [18], 32.1 µM (inactive). The GI50 in [19] was 58.1 µM (inactive).
Turning to `CC(C)(C)SC1=CCC[C@@H](P(=O)(c2ccccc2)c2ccccc2)[C@@H]2CCC[C@@H]12`, the GI50 is 19.1 µM (inactive) in assay [1]; 17 µM (inactive) in assay [2]; 16.7 µM (inactive) in [3]; 17.7 µM (inactive) in [4]; 27 µM (inactive) in assay [5]; 17.2 µM (inactive) in [6]. For the same compound, the GI50 in assay [7] was 15.3 µM (inactive); in assay [8], 14.2 µM (inactive); in [9] it was 13.7 µM (inactive); in assay [10], 17.5 µM (inactive); in [11] it was 19.3 µM (inactive); in assay [12] it was 19.6 µM (inactive). For the same compound, the GI50 in assay [13] was 15.7 µM (inactive); in assay [14], 16.2 µM (inactive); in assay [15], 13.6 µM (inactive); in assay [16] it was 13.8 µM (inactive); in assay [17], 14.3 µM (inactive); in [18] it was 12.4 µM (inactive). The GI50 in assay [19] is 17.7 µM (inactive).
Take `CN(C)c1ccc2c(c1)oc(=O)c1ccccc12`: the GI50 in assay [1] was 3.59 µM (inactive); in assay [2] it was 4.61 µM (inactive); in assay [3] it was 11.9 µM (inactive); in [4], 10.7 µM (inactive); in [5], 11.4 µM (inactive); in assay [6], 13.7 µM (inactive). The GI50 in [7] is 13 µM (inactive); in [8], 10.4 µM (inactive); in assay [9], 12.3 µM (inactive); in assay [10] it was 6.14 µM (inactive); in [11] it was 4.52 µM (inactive); in assay [12], 11.8 µM (inactive). The GI50 is 8.36 µM (inactive) in [13]; 14.9 µM (inactive) in assay [14]; 15.5 µM (inactive) in [15]; 5.4 µM (inactive) in assay [16]; 12.3 µM (inactive) in assay [17]; 13.6 µM (inactive) in assay [18]. The GI50 in [19] is 15.3 µM (inactive).
For `CCCc1cn2c(/C=N/N=C(N)N)c(-c3c(OC)ccc(OC)c3[N+](=O)[O-])nc2s1`, the GI50 in [1] was 2.54 µM (inactive); in assay [2], 4.69 µM (inactive); in [3] it was 9.89 µM (inactive); in assay [4], 13.3 µM (inactive); in assay [5] it was 7.78 µM (inactive); in assay [6] it was 9.89 µM (inactive). Further, the GI50 in [7] is 7.08 µM (inactive); in assay [8], 4.06 µM (inactive); in assay [9], 12.5 µM (inactive); in assay [10], 3.02 µM (inactive); in assay [11] it was 3.44 µM (inactive); in assay [12] it was 10.3 µM (inactive). Moreover, the GI50 is 8.79 µM (inactive) in assay [13]; 2.57 µM (inactive) in assay [14]; 15.6 µM (inactive) in assay [15]; 9.55 µM (inactive) in assay [16]; 20.2 µM (inactive) in assay [17]; 8.24 µM (inactive) in assay [18]. In [19], the GI50 is 11.4 µM (inactive).
`CCOC(=O)C(Cc1c2ccccc2cc2ccccc12)(NC(C)=O)C(=O)OCC`: the GI50 in [1] is > 100 µM (inactive); in assay [2] it was > 64.7 µM (inactive); in assay [3], 76.4 µM (inactive); in assay [4], > 50.6 µM (inactive); in [5], > 79.8 µM (inactive); in assay [6] it was > 45 µM (inactive). Besides, the GI50 in assay [7] was > 75.9 µM (inactive); in assay [8], > 86.9 µM (inactive); in assay [9] it was 14.2 µM (inactive); in assay [10], > 100 µM (inactive); in [11], > 69.8 µM (inactive); in [12], > 100 µM (inactive). For the same compound, the GI50 in [13] is 64 µM (inactive); in assay [14], > 100 µM (inactive); in [15], > 100 µM (inactive); in [16], 42.7 µM (inactive); in assay [17], 40.4 µM (inactive); in assay [19], 62.1 µM (inactive).
In the case of `N#Cc1c(-c2ccc([N+](=O)[O-])cc2)cc(-c2ccc(Nc3ccnc4cc(Cl)ccc34)cc2)[nH]c1=O`, the GI50 in [1], in [2], in assay [3], in [5], in assay [6] and in [7] was > 100 µM (inactive) throughout. Also, the GI50 in assay [9], in assay [10], in assay [11], in assay [12], in assay [13] and in assay [14] was > 100 µM (inactive) each time. The GI50 in [15], in assay [16], in [17], in assay [18] and in [19] was > 100 µM (inactive) each time.
